Results taken from ChEMBL document CHEMBL1201862, “PubChem BioAssay data set” (2004).
Calls of active or inactive are those of the source.

How the values were obtained:
Mu-type opioid receptor = Mu-type opioid receptor (Homo sapiens, UniProt P35372); assay type: functional, cell-based;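 also: U2OS cells with beta-arrestin recruitment to OPRM1 by beta-gal complementation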
[1] = target: 5-hydroxytryptamine receptor 2A (Mus musculus, UniProt P35363); assay type: functional, cell-based;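 also: CHO-K1 cells with tagged receptor and beta-arrestin; agonist potency measured as compound-induced activation of the receptor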
[2] = luciferase reporter signal suppression in cells – H4 neuroglioma cells, luminescence, dose response (AID 1990); assay type: functional, cell-based
[3] = Luminescence Cell-Based Dose Response HTS to Identify Inhibitors of 5'UTR Stem-Loop Driven Prion Protein mRNA Translation in H4 Neuroglioblastoma Cells. [Related pubchem assays: 1827 (Project Summary), 1813 (Primary HTS)]; assay type: functional
[4] = alpha-synuclein stem-loop luciferase translation blockers – H4 neuroglioma cells, luminescence, confirmation (AID 1988); assay type: functional, cell-based
[5] = target: T1, Heat shock factor protein 1 (Mus musculus, UniProt P38532); test: enhancement of HSF1-driven luciferase signal – cell-based, NIH3T3, luminescence, dose retest, confirmation (AID 435004); assay type: functional;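 also: stress induced by proteasome inhibitor MG132 added 30 min after compound; luciferase reporter driven by HSF1 response element in NIH3T3 cells; actives raise luminescence as potentiators of the MG132 stress response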
T1 sequence (P38532 whole entry): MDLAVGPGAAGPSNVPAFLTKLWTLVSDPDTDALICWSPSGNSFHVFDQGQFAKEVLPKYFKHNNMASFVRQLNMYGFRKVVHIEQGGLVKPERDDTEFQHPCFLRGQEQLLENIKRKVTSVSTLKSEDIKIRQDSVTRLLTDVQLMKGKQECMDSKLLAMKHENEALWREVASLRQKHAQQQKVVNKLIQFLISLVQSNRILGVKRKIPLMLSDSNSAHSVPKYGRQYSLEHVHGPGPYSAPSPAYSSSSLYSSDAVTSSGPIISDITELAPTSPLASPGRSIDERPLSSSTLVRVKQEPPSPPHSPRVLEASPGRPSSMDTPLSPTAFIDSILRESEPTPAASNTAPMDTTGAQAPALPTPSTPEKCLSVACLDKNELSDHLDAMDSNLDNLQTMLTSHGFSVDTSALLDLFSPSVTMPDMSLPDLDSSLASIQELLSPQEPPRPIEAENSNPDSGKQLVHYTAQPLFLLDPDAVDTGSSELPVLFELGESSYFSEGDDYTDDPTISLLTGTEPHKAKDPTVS

Beta-galactosidase = Beta-galactosidase (Escherichia coli, UniProt Q8VNN2); test: PubChem AID 485352; assay type: functional
[6] = target: T2, Type-1 angiotensin II receptor (Homo sapiens, UniProt P30556); test: antagonism of angiotensin II type 1 receptor – cell-based, uHTS hits, selectivity assay for APJ receptor antagonist project, dose response (AID 463214); assay type: functional;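 also: antagonist potency against angiotensin II stimulated AT1 response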
T2 sequence (P30556 whole entry): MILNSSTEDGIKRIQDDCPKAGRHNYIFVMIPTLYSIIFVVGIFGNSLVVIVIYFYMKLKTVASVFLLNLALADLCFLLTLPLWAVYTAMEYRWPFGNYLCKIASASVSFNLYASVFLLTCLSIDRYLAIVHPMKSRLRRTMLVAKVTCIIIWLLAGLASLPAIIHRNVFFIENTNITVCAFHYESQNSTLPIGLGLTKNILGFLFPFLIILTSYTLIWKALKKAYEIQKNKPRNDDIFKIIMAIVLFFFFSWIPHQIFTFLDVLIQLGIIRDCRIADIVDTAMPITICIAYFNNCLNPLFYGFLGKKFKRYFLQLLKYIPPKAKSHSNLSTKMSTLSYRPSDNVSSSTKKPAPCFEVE

Large T antigen = Large T antigen (Simian virus 40, UniProt P03070); assay type: functional, Betapolyomavirus macacae;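 also: Confirmatory-stage PubChem screen for compounds that inhibit SV40 T antigen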
[7] = target: Photoreceptor-specific nuclear receptor (Homo sapiens, UniProt Q9Y5X4); assay type: functional, cell-based;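 also: CHO-S cells with Gal4-NCOR and VP16-NR2E3 two-hybrid luciferase reporter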
[8] = target: SWI/SNF-related matrix-associated actin-dependent regulator of chromatin subfamily A member 2 (Homo sapiens, UniProt P51531); test: Luminescence-based cell-based high throughput dose response assay to identify activators of the function of SWI/SNF related, matrix associated, actin dependent regulator of chromatin, subfamily a, member 2 (SMARCA2, BRM).; assay type: functional
[9] = Counterscreen for activators of the function of SWI/SNF related, matrix associated, actin dependent regulator of chromatin, subfamily a, member 2 (SMARCA2, BRM): Luminescence-based cell-based high throughput dose response assay to identify non-selective compounds using the VP16 reporter assay.; assay type: functional
[10] = target: T3, Adenosylmethionine-8-amino-7-oxononanoate aminotransferase (Mycobacterium tuberculosis, UniProt P9WQ81); test: Mycobacterium tuberculosis BioA enzyme inhibitor Measured in Biochemical System Using Plate Reader - 2163-02_Inhibitor_Dose_CherryPick_Activity.; assay type: functional, Mycobacterium tuberculosis UT205
T3 sequence (P9WQ81 whole entry): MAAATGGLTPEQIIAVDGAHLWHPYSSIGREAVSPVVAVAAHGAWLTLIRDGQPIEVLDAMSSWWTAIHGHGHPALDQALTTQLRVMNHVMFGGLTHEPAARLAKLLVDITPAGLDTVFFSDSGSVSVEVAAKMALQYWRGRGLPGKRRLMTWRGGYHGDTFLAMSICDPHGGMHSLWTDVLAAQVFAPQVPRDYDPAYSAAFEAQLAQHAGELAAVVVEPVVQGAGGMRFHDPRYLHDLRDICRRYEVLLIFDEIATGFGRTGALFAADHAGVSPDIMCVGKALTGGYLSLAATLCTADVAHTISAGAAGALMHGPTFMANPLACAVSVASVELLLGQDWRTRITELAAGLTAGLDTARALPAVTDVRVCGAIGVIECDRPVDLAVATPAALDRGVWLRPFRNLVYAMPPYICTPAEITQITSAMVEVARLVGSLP

Beta-lactamase [11] = target: T4, Beta-lactamase (Pseudomonas aeruginosa, UniProt Q79MP6); test: […] counterscreen for selective VIM-2 inhibitors: dose response biochemical high throughput screening assay to identify inhibitors of IMP-1 metallo-beta-lactamase.
Beta-lactamase [12] = target: T4, Beta-lactamase; test: inhibition of IMP-1 beta-lactamase activity – biochemical, epi-absorbance, selectivity assay for VIM-2 inhibitor project, dose response (AID 1920)
Beta-lactamase [13] = target: Beta-lactamase (Salmonella choleraesuis (strain SC-B67), UniProt Q5J463); test: Epi-absorbance-based counterscreen for selective VIM-2 inhibitors: dose response biochemical high throughput screening assay to identify inhibitors of TEM-1 serine-beta-lactamase.
[14] = Luminescence Cell-Based Dose Confirmation HTS to Identify Inhibitors of Platelet Dense Granule Release. [Related pubchem assays: 1663 (Primary HTS), 1678 (Summary of Project)]; assay type: functional
[15] = target: Luciferin 4-monooxygenase (Photinus pyralis, UniProt P08659); test: inhibition of purified Photinus pyralis luciferase – biochemical, luminescence, dose response (AID 1891)
[16] = target: T5, Nuclear receptor subfamily 0 group B member 1 (Homo sapiens, UniProt P51843); assay type: functional, cell-based;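 also: HEK293T cells transfected with SF-1 and DAX-1 plus StAR promoter luciferase reporter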
T5 sequence (P51843 whole entry): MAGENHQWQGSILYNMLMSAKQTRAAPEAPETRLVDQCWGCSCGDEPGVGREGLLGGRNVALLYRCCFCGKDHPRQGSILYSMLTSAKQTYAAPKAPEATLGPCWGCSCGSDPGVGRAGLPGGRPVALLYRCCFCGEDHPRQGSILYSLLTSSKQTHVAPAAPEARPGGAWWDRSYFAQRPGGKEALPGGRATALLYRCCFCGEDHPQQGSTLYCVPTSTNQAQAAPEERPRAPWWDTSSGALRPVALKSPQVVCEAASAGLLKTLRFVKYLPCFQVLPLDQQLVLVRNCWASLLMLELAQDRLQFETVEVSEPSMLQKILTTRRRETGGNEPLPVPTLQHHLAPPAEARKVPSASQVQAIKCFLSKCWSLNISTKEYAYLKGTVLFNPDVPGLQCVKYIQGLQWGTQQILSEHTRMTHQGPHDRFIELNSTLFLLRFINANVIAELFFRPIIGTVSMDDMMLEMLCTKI

cells = assay type: functional, cell-based

5-hydroxytryptamine receptor 2A, sequence (P35363 whole entry): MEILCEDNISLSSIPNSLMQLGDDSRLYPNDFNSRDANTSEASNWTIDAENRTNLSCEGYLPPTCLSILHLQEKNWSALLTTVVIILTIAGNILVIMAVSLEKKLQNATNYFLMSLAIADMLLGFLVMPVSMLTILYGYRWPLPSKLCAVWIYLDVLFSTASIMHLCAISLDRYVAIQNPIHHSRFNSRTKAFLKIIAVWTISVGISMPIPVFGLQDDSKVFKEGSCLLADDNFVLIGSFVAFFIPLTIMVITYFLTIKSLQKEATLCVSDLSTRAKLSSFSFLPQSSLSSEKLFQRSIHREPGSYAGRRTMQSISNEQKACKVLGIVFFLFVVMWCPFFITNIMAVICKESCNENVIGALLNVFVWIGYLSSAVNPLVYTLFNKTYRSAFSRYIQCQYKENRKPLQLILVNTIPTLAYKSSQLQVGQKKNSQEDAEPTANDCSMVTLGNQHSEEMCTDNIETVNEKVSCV
T4 sequence (Q79MP6 whole entry): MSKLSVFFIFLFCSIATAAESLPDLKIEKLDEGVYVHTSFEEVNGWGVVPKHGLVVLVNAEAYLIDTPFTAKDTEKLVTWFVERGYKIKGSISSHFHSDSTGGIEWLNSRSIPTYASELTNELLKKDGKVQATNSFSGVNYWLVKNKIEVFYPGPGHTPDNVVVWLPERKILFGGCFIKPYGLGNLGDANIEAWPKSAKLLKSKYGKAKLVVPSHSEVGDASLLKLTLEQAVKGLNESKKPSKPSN
Mu-type opioid receptor, sequence (P35372 whole entry): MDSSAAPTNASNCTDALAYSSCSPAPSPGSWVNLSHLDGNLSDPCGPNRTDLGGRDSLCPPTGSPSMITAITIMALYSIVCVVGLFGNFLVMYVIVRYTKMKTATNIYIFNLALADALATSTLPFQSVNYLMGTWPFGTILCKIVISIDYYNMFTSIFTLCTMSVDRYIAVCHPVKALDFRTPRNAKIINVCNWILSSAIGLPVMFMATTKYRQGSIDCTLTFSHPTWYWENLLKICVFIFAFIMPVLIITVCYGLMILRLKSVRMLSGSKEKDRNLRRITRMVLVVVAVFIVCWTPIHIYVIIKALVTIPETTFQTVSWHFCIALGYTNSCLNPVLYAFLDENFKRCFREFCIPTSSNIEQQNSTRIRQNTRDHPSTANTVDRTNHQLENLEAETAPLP
Beta-galactosidase, sequence (Q8VNN2 whole entry): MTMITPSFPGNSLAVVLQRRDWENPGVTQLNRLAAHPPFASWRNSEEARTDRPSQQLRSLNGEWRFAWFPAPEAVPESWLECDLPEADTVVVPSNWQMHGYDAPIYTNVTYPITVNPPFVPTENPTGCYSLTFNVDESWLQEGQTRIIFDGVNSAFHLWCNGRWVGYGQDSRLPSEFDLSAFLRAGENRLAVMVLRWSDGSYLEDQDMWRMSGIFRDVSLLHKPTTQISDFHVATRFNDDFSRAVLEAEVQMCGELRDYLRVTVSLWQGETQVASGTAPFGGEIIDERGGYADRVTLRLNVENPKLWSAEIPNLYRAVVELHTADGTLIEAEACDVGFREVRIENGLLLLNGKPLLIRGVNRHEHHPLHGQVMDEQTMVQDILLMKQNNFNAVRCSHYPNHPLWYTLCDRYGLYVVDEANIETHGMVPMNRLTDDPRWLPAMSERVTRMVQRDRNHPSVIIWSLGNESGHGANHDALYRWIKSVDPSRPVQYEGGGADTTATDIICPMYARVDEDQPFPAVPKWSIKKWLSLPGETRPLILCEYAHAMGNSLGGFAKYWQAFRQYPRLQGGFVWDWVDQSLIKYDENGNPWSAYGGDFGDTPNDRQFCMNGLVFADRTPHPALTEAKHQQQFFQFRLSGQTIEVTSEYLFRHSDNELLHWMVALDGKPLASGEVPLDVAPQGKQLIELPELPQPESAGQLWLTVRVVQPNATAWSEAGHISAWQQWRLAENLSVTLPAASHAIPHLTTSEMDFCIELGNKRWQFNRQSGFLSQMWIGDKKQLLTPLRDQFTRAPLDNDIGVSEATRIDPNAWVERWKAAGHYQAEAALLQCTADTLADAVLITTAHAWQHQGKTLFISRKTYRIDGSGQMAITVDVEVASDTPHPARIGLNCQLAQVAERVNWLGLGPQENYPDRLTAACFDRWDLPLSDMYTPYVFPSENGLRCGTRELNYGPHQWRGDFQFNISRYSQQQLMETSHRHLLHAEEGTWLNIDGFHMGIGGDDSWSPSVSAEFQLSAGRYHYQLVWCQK
Luciferin 4-monooxygenase, sequence (P08659 whole entry): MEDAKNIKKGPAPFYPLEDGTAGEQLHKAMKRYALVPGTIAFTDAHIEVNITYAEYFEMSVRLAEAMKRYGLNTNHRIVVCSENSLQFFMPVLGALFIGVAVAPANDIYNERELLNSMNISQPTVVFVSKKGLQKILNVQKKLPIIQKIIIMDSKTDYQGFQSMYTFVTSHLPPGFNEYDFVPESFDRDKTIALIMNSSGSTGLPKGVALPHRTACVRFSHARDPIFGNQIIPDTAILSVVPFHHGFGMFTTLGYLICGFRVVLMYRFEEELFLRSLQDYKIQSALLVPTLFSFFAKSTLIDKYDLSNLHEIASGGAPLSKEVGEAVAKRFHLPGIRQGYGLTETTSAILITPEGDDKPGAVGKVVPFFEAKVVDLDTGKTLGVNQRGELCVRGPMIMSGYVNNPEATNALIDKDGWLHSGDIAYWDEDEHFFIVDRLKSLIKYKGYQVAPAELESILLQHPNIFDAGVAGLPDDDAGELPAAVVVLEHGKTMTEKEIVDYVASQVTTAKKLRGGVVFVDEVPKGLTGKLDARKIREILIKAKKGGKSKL
Photoreceptor-specific nuclear receptor, sequence (Q9Y5X4 whole entry, the tested form may be a part): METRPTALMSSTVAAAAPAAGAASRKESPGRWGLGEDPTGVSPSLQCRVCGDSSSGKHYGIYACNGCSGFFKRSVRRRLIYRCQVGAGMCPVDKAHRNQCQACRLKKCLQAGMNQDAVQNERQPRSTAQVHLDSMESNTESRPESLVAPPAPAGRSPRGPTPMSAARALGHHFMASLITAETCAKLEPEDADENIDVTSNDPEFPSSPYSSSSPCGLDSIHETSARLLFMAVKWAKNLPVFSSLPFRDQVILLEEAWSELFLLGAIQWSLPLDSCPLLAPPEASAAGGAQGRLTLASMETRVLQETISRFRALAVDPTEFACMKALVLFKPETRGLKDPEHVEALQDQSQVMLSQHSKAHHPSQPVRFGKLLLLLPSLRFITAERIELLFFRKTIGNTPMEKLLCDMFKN
Large T antigen, sequence (P03070 whole entry, the tested form may be a part): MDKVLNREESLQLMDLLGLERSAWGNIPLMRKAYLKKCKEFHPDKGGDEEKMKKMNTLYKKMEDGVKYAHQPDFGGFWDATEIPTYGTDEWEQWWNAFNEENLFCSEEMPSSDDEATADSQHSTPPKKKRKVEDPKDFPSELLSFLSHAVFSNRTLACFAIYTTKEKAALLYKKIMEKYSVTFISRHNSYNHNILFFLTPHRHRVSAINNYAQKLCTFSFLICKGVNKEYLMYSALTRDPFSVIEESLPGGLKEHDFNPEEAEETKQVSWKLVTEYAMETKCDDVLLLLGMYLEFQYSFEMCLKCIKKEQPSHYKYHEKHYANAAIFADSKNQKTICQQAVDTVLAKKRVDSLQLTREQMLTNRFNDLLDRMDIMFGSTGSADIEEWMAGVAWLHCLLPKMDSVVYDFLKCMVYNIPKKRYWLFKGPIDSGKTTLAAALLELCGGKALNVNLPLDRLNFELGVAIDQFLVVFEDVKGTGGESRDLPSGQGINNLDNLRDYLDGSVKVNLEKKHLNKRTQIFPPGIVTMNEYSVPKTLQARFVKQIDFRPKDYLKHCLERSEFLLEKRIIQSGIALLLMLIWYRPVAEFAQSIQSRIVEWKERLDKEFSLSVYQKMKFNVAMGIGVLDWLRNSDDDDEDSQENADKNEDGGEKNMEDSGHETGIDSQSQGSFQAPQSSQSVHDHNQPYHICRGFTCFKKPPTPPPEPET
Beta-lactamase (Salmonella choleraesuis (strain SC-B67), UniProt Q5J463), sequence (Q5J463 whole entry): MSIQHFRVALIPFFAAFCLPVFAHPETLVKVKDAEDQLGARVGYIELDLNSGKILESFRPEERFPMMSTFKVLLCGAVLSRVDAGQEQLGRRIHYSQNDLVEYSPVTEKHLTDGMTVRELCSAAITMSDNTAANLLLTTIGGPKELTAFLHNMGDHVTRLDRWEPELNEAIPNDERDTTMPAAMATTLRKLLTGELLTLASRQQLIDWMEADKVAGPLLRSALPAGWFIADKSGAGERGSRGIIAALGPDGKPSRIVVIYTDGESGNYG

Compound: CC1(C)C(C=C(Cl)Cl)C1C(=O)N1CCN(Cc2ccccc2)CC1 (stereo not given)
- EC50 (Mu-type opioid receptor): 92.5 µM (inactive)
- EC50 [1]: 1.21 µM (active)

Compound: O=C(CCN1CCN(c2ccccc2F)CC1)Nc1ccc2c(c1)OCO2
- EC50 [2]: > 120 µM (not active)
- EC50 [3]: > 120 µM (not active)
- EC50 (Mu-type opioid receptor): 92.5 µM (inactive)
- EC50 [1]: 76.1 µM (inactive)
- EC50 [4]: > 120 µM (not active)

Compound: CCSC1(SCC)N=C(N)C2(C#N)C(c3ccc(OC)c(OC)c3OC)C12C#N (stereo not given)
- EC50 [5]: 6.63 µM (active)
- EC50 (Beta-galactosidase): > 40 µM (inactive)
- IC50 [6]: 27.5 µM (not active)
- IC50 (Large T antigen): > 100 µM (active)

Compound: O=C(CN1C(=O)C2CC=CCC2C1=O)OCC(=O)c1ccc(Cl)c([N+](=O)[O-])c1 (stereo not given)
- EC50 (Beta-galactosidase): > 40 µM (inactive)
- IC50 [6]: 16.3 µM (active)

Compound: COc1cccc(N2CCN(c3nc(O)cc(-c4ccccc4C)n3)CC2)c1
- IC50 [7]: 0.0942 µM (active)
- EC50 [8]: > 91.2 µM (inactive)
- EC50 [9]: > 91.2 µM (inactive)

Compound: Cc1ccc(NC(=O)CSc2nc(=O)n(CCCN3CCOCC3)c3c2CCCC3)cc1F
- AC50 [10]: 3.18 µM (active)

Compound: COc1ccccc1NC(=O)N[C@@H]1CC[C@H](CCn2cc(-c3cccnc3)nn2)O[C@H]1CO
- AC50 [10]: 2.59 µM (active)

Compound: O=C(O)Cn1cccc1C(=O)c1ccccc1
- IC50 (Beta-lactamase [11]): > 59.6 µM (inactive)
- IC50 (Beta-lactamase [12]): > 59.6 µM (inactive)
- IC50 (Beta-lactamase [13]): > 59.6 µM (inactive)

Compound: C=C[C@@]1(C)CC(=O)[C@]2(O)[C@@]3(C)[C@@H](O)CCC(C)(C)[C@@H]3[C@H](O)[C@H](OC(C)=O)[C@@]2(C)O1 [COLFORSIN]
- EC50 [14]: < 0.088 µM (active)
- EC50 [15]: > 112 µM (not active)
- IC50 [16]: 1.73 µM (active)
- IC50 (cells): > 67.5 µM (inactive)
